Results as given in ChEMBL document CHEMBL3632491, “Synthesis and evaluation of aminopyridine derivatives as potential BACE1 inhibitors” (Bioorg Med Chem Lett, 2015).

Molecular target: Beta-secretase 1 (Homo sapiens) (UniProt P56817)
Experiment: Inhibition of recombinant BACE1 (unknown origin) using synthetic dodecapeptide with BACE1 cleavage sequence of Swedish type as substrate at 2 mM after 30 mins

Chain of Beta-secretase 1 (Homo sapiens) (P56817 whole entry): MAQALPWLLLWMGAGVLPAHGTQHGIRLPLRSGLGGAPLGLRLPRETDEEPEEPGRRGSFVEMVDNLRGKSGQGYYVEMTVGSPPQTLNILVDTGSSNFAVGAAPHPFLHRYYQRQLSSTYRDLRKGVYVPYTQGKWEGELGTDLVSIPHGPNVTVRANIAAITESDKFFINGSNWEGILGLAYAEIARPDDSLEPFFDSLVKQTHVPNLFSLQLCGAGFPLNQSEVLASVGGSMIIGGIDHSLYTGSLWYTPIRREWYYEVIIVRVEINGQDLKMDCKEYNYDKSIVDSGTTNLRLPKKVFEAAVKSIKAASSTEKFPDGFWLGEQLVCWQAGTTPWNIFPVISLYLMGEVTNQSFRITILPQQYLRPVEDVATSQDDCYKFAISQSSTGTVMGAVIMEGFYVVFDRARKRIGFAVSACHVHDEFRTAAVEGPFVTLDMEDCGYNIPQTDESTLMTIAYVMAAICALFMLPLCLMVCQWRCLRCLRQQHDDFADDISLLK

Structure (SMILES) | inhibition [%]
COCOc1ccc(C(=O)Nc2ccc(CCCCC(O)c3cccc(OC)c3)cn2)cc1 (stereo unspecified) | 19
COc1cccc(CCCCc2ccc(NC(C)=O)nc2)c1 | 20
COc1cccc(C(O)CCCCc2ccc(NC(C)=O)nc2)c1 (stereo unspecified) | 20
COc1cccc(CCCCc2cccc(NC(C)=O)n2)c1 | 21
COc1cccc(C(O)CCc2cccnc2NC(C)=O)c1 (stereo unspecified) | 18
COc1cccc(C(O)CCCCc2cccc(NC(C)=O)n2)c1 (stereo unspecified) | 56
